In US20220170028A1, “NOVEL INTERLEUKIN-2 VARIANTS AND BIFUNCTIONAL FUSION MOLECULES THEREOF” (Cugene Inc, priority 2019, published 2022):

Key:
[1] = tested on: KLH-induced DTH in Balb/C mice; assay: KLH-induced delayed-type hypersensitivity (DTH) mouse model, ear thickness; assay type: in vivo; settings: 72 hours after KLH challenge, 4 consecutive daily dosing at 5 mg/kg i.p.
Procedure: The ability of Treg cells induced by IL-2 variants to suppress T cell antigen-driven inflammation in vivo was assessed in a model of delayed-type hypersensitivity (DTH). Female Balb/C mice (7-week old) were acclimated in house for 7 days and randomized into groups. Subcutaneous administration of vehicle (PBS), P-0511 at either 0.1 mg/kg or 0.3 mg/kg was initiated on day −2 and was given either once every 3 days (Q3D) for three injections or once every 5 days (Q5D) for two injections. Mice were then sensitized with a subcutaneous administration of 100 μg keyhole limpet hemocyanin (KLH) in 200 μl saline on day 0. For Q3D dosing, two more subcutaneous injections of PBS or P-0511 (0.1 or 0.3 mg/kg) were administered on days 1, and 4; for Q5D dosing, one additional s.c. injection of PBS, 0.1 or 0.3 mg/kg P-0511 was administered on day 3. Mice received an intradermal challenge of KLH (5 μg in 10 μl saline) in right ear on day 5. Right ear thickness was measured using a caliper on day 5 prior KLH challenge and daily from day 6 to day 9 corresponding to 24 h, 48 h, 72 h and 96 h post KLH challenge. One group of mice also received 5 mg/kg daily i.p. treatment of dexamethasone from day 5 to day 8 as a positive control.
Kinetics of the DTH response using the change in ear thickness relative to baseline values (Δ ear thickness) at various times after KLH challenge was illustrated in FIG. 23.

[2] = tested on: CD4+ Tconv cells, CD8 T cells and NK cells; assay: Effector T cell and NK cell proliferation and expansion in mice after a single subcutaneous injection (Example 9); assay type: in vivo, mouse; settings: 0.3 mg/kg single s.c., C57/BL6 mice
Procedure: (§1) IL-2 variant Fc fusion proteins were administered to mice and their ability to preferentially proliferate and expand regulatory T cells (CD4+CD25+FoxP3+ T cells) over effector T cells and NK cells were determined in vivo.
(§2) Female C57/BL6 mice (7-week old) were received from Charles River Laboratory and acclimated in house for at least 7 days before the study. Vehicle (PBS), 0.3 mg/kg of each test compounds, or IL-2 benchmark compounds were subcutaneously administered to mice on day 0. Peripheral blood samples were collected into heparin-treated tubes on days 3, 5 and 7 post-treatment. Each group contained 6 mice and baseline blood was collected 2 days prior to the treatment (day −2). After red blood cell lysis, total viable mononuclear blood cells were counted by trypan blue dead cell exclusion method and proceeded to intracellular staining for immune cell phenotype and Ki67 proliferation markers using flow cytometric analysis. Cells were stained separately with two panels of antibodies as listed: 1) anti-mouse Foxp3-FITC, Ki67-PE, anti-mouse CD25-APC and anti-mouse CD4-Percpcy5.5 (1:50 dilution) for CD4+T-regulatory cells (Treg); 2) anti-mouse CD3-FITC, Ki67-PE, anti-mouse CD335-APC and anti-mouse CD8-Percpcy5.5 (1:50 dilution) for CD8+T and NK cells.

Treg cells [3] = assay: Treg proliferation and expansion in mice after a single subcutaneous injection (Example 9); assay type: in vivo, mouse; settings: 0.3 mg/kg single s.c., C57/BL6 mice; for stimulation of Treg cell proliferation and expansion in vivo (in words): days 3, 5, 7
Procedure: as §1, §2

Treg cells [4] = assay: Treg pharmacodynamics in mice after repeated administration Q3D (Example 11); assay type: in vivo, mouse; settings: after three consecutive Q3D treatments, 0.3 mg/kg s.c.
Procedure: Female Balb/C mice (7-week old) were acclimated in house for 5-7 days before the study. Vehicle (PBS), 0.3 mg/kg of P-0511, P-0512, P-0531, or Benchmark-1 compound were subcutaneously administered to mice (n=5/group) on days 0, 3, and 6. On days 3 and 9, three days after the first injection and multiple (3) injections, respectively, peripheral blood was collected. Based on earlier in vivo experiments, Treg cell activation, proliferation, and expansion were expected to peak on day 3, and thus three days post injection was selected for data collection and analysis. Changes in blood lymphocyte activation, proliferation, and expansion were measured by flow cytometry. P-0531 is the S125I equivalent of the wild type IL-2 fusion protein. The Benchmark-1 contains V91K mutation.

[5] = Aggregate content by size-exclusion chromatography after Protein A purification; assay type: physicochemical; settings: Isoleucine-125 constructs; after MabSelectSure
Procedure: For affinity chromatography each supernatant was loaded on a HiTrap MabSelectSure column (CV=5 mL, GE Healthcare) equilibrated with 25 ml phosphate buffered saline, pH 7.2 (ThermoFisher). Unbound protein was removed by washing with 5 column volumes PBS, pH 7.2 and target protein was eluted with 25 mM sodium citrate, 25 mM sodium chloride, pH 3.2. Protein solution was neutralized by adding 3% of 1 M Tris pH 10.2. Ion exchange chromatography or mix-mode chromatography, including but not limited to CaptoMMC (GE Healthcare), ceramic hydroxyapatite, or ceramic fluoroapatite (Bio-Rad) was also utilized to polish the Protein A material as needed. Target protein was concentrated with an Amicon®Ultra-15 concentrator 10 KDa NMWC (Merck Millipore Ltd.)
The purity and molecular weight of the purified constructs were analyzed by SDS-PAGE with and in the absence of a reducing agent and staining with Coomassie (Imperial® Stain). The NuPAGE® Pre-Cast gel system (4-12% or 8-16% Bis-Tris, ThermoFisher) was used according to the manufacturer's instructions. The protein concentration of purified protein samples was determined by measuring the UV absorbance at 280 nm (Nanodrop Spectrophotometer, ThermoFisher) divided by the molar extinction coefficient calculated on the basis of the amino acid sequence. The aggregate content of the constructs was analyzed on an Agilent 1200 high-performance liquid chromatography (HPLC) system. Samples were injected onto an AdvanceBio size-exclusion column (300 Å, 4.6×150 mm, 2.7 μm, LC column, Agilent) using 150 mM sodium phosphate, pH 7.0 as the mobile phase at 25° C.
(§3) S125I substitution was thus introduced into a number of IL-2 variant Fc fusion molecules. The constructs harboring Ile-125 substitution in IL-2 were expressed using the same vector and in the same culturing conditions as their Ser-125 counterparts and purified using MabSelectSure. The expression level in mg/L and purity assessed by SEC chromatography in aggregation % of exemplary molecules are summarized in Table 6. The two molecules in the same row of Table 6 share the same other amino acid substitution(s) and differ only at residue 125 with either serine or isoleucine. As an example, the SEC chromatogram and SDS-PAGE pictures of P-0447 (SEQ ID NO: 173) and its Ile-125 counterpart P-0511 (SEQ ID NO: 213) were further illustrated in FIGS. 1D and 1E.

[6] = tested on: CD4+ Treg vs CD4+ Tconv cells; assay: STAT5 phosphorylation, selectivity / activity profile Treg versus CD4+ Tconv cells, human PBMC; assay type: cell-based
Source text: (§4) Single amino acid substitutions were introduced to IL-2 at positions corresponding to amino acids interacting with receptor subunit(s) β or γ or βγ. These substitutions were aimed to reduce IL-2 signaling capacity through the intermediate affinity IL-2Rβγ complex and confer signaling specificity from the high affinity IL-2Rαβγ. IL-2 variants containing single amino acid substitutions were examined for their ability to differentially stimulate STAT5 phosphorylation in CD4 positive Treg and Tconv cells. STAT5 is known to be involved in the downstream signaling cascade upon IL-2 binding to the transmembrane IL-2 receptors. The phosphorylation of STAT5 in defined lymphocyte subpopulations was measured using fresh human peripheral blood mononuclear cells (PBMC) and the forkhead transcription factor FOXP3 was used to identify the Treg population in FACS analysis.
(§5) Briefly, human PBMC were isolated by Ficoll-Hypaque centrifugation from the buffy coat of a healthy donor. PBMC were starved in serum-free MACS buffer at 4° C. for 1 hour. 2×10^5 PBMC were then treated with serial dilutions of test compounds for 30 min at 37° C. Cells were fixed and permeabilized with Foxp3/Transcription Factor Staining Buffer Set (EBIO) by incubating with 1× Foxp3 fixation/permeabilization working solution for 30 minutes and washing with 1× permeabilization buffer. Cells were additionally fixed with Cytofix buffer and permeabilized with Perm Buffer III (BD Biosciences) and then washed. After blocking Fc receptors by adding human TruStain FcX (1:50 dilution), cells were stained with a mixture of anti-CD25-PE, anti-FOXP3-APC, anti-pSTAT5-FITC, and anti-CD4-PerCP-Cy5.5 antibodies at concentrations recommended by the manufacturer for 45 minutes at room temperature. Cells were collected by centrifugation, washed, resuspended in FACS buffer, and analyzed by flow cytometry. The flow cytometry data was gated into CD4+/Foxp3+/CD25^high and CD4+/Foxp3−/CD25^low groups for the Treg and CD4 conventional T cell subsets, respectively. Data are expressed as a percent of pStat5 positive cells in gated population.
The S125I substitution was then introduced into wild-type IL-2 or IL-2 variants that already harbored 1 or 2 mutations targeting receptor subunit(s) β or γ or βγ. The resulting IL-2 variants containing isoleucine at position 125 were tested for their ability to stimulate STAT5 phosphorylation in Treg and Tconv cells in comparison with their respective serine counterparts at position 125. Table 7 lists the potency and selectivity of IL-2 variants in Treg cells. The two molecules in the same row of Table 7 share the same other amino acid substitution(s) and differ only at position 125 with either serine or isoleucine.

[7] = tested on: STAT5 phosphorylation in CD4+ Treg cells; assay: STAT5 phosphorylation in CD4+ Treg cells, human PBMC assay by FACS; assay type: cell-based
Source text: as §4, §5

[8] = Transient expression level of IL-2 Fc fusion constructs in HEK-293F cells; settings: Isoleucine-125 constructs
Procedure: The constructs were produced by co-transfecting HEK293-F cells growing in suspension with the mammalian expression vectors using polyethylenimine (PEI, 25,000 MW linear, Polysciences). If there were two or more expression vectors, the vectors were transfected in a 1:1 ratio. For transfection, HEK293 cells were cultivated in serum free FreeStyle™ 293 Expression Medium (ThermoFisher). For production in 1000 ml shaking flasks (working volume 330 mL), HEK293 cells were seeded at a density of 0.8×10^6 cells/ml 24 hours before transfection. A total of 330 μg of DNA expression vectors were mixed with 16.7 ml Opti-mem Medium (ThermoFisher). After addition of 0.33 mg PEI diluted in 16.7 ml Opti-mem Medium, the mixture was vortexed for 15 sec and subsequently incubated for 10 min at room temperature. The DNA/PEI solution was then added to the cells and incubated at 37° C. in an incubator with 8% CO2. Sodium butyrate (Millipore Sigma) was added to the cells at day 4 at a final concentration of […] to help sustain protein expression. After 6 days cultivation, supernatant was collected for purification by centrifugation for 20 min at 2200 rpm. The solution was sterile filtered (0.22 μm filter, Corning). The secreted protein was purified from cell culture supernatants using Protein A affinity chromatography.
as §3

C[C@@H]1C[C@H]2[C@@H]3CCC4=CC(=O)C=C[C@]4(C)[C@@]3(F)[C@@H](O)C[C@]2(C)[C@@]1(O)C(=O)CO [dexamethasone, reference compound]
inhibition of KLH-induced inflammatory response [1]: ~85%

Benchmark-3: benchmark Fc-IL-2 variant fusion protein containing N88D, SEQ ID NO: 199 [reference compound]
Ki67 stimulation on CD8 T cells and NK cells in vivo (in words) [2]: low effects
stimulation of Treg cell proliferation and expansion in vivo (in words) (Treg cells [3]): not efficacious

P-0514: IL-2 L19Q/S125I/Q126E Fc fusion, SEQ ID NO: 216
expansion of CD4+ Tconv cells, CD8 T cells or NK cells in vivo [2]: No significant expansion
Treg/Tconv ratio (Ki67 stimulation and cell counts) (Treg cells [3]; all measured time points): most beneficial Treg/Tconv ratio
stimulation of Treg cell proliferation and expansion in vivo (in words) (Treg cells [3]): stronger in vivo efficacy

P-0531: IL-2 S125I Fc fusion, S125I equivalent of wild type, SEQ ID NO: 167
% Treg over total CD4 T cells or over total lymphocytes (Treg cells [4]): declined drastically to near control levels
Aggregation % (SEC) [5]: 0.7%
activity profile / selectivity window Treg over CD4+ Tconv (in words) [6]: without altering Treg selectivity
Treg Selectivity ([6]; Isoleucine-125 constructs): Yes
STAT5 phosphorylation activity in Treg cells (in words) [7]: slightly increased potency
Expression [8]: 29.5 mg/L
